Measured values published in patent US20110136792A1, “NOVEL CARBOXYLIC ACID ANALOGS AS GLYCOGEN SYNTHASE ACTIVATORS” (priority 2009, published 2011).

System: glycogen synthase
Assay: Glycogen Synthase (GS) Assay
Type: biochemical
Settings: coupled pyruvate kinase/lactate dehydrogenase assay, absorbance at 340 nm; for EC50: compound concentration needed to give 50% maximum activation; for GS SC200: compound concentration needed to stimulate 200% of the enzyme activity
Experimental: The following tests were carried out in order to determine the activity of the compounds of formula (I).
Twelve μL per well of substrate solution containing glycogen (4.32 mg/ml), 2.67 mM UDP-glucose, 21.6 mM phospho(enol)pyruvate and 2.7 mM NADH in 30 mM glycylglycine, pH 7.3 buffer was added into a polystyrene 384-well assay plate (BD Biosciences).
Compound solutions (8 μL/well) at various concentrations (0-300 μM) were added to the assay plate (columns 5-24). Compound solution contains 30 mM glycylglycine, pH 7.3, 40 mM KCl, 20 mM MgCl2, 9.2% DMSO, with (columns 15-24) or without (columns 5-14) 20 mM glucose 6-phosphate.
Enzyme solution (12 μL/well) containing glycogen synthase (16.88 μg/ml), pyruvate kinase (0.27 mg/ml), lactate dehydrogenase (0.27 mg/ml) in 50 mM Tris-HCl, pH 8.0, 27 mM DTT and bovine serum albumin (BSA, 0.2 mg/ml) was added to the assay plate (columns 3-24). As a blank control, enzyme solution without glycogen synthase was added into the top half wells of columns 1-2. To the bottom half wells of columns 1-2 were added a known activator, glucose 6-phosphate (at final concentration 5 mM) in addition to the enzyme solution. The reaction mixture was incubated at room temperature. The assay plate was then read for absorbance at 340 nm on an Envision reader every 3 minutes up to a total of 15 minutes.
The enzyme activity (with or without compound) was calculated by the reaction rate and represented by the optical density change (δOD) per minute. Percent stimulation of glycogen synthase activity by a compound at various concentrations was calculated by the following formula: […]
Where Rs is the reaction rate of the enzyme in the presence of compound and Rt is the reaction rate of the enzyme in the absence of compound.
SC200 is defined as the compound concentration that is needed to stimulate 200% of the enzyme activity. EC50 is defined as the compound concentration that is needed to give 50% maximum activation.
Compounds from Examples 1 through Example 64 were assayed according to assay procedures described above and the result is listed in Table 1 below: […]

Structure (SMILES) | EC50 | GS SC200
O=C(O)[C@H]1CCS(=O)(=O)N1Cc1cccc(COc2ccc(-c3cc(F)c(F)cc3Cl)cc2)c1 [Example 50, (R)-2-[3-(2′-Chloro-4′,5′-difluoro-biphenyl-4-yloxymethyl)-benzyl]-1,1-dioxo-1lambda*6*-isothiazolidine-3-carboxylic acid] | 840 nM | 0.42 µM
O=C(O)[C@@H]1CCS(=O)(=O)N1Cc1cccc(COc2ccc(-c3cc(F)c(F)cc3Cl)cc2)c1 [Example 51, (S)-2-[3-(2′-Chloro-4′,5′-difluoro-biphenyl-4-yloxymethyl)-benzyl]-1,1-dioxo-1lambda*6*-isothiazolidine-3-carboxylic acid] | 100 nM | 0.03 µM
COc1cc(F)c(F)cc1-c1ccc(OCc2cccc(CN3C(=O)CC[C@H]3C(=O)O)c2)cc1 [Example 52, (S)-1-[3-(4′,5′-Difluoro-2′-methoxy-biphenyl-4-yloxymethyl)-benzyl]-5-oxo-pyrrolidine-2-carboxylic acid] | 120 nM | 0.02 µM
O=C(O)[C@@H]1CCC(=O)N1Cc1cccc(COc2ccc(-c3cc(F)c(F)cc3F)cc2)c1 [Example 53, (S)-5-Oxo-1-[3-(2′,4′,5′-trifluoro-biphenyl-4-yloxymethyl)-benzyl]-pyrrolidine-2-carboxylic acid] | 130 nM | 0.03 µM
O=C(O)C(F)(F)F.O=C(O)[C@@H]1CCCN1Cc1cccc(COc2ccc(-c3ccc(F)cc3F)cc2)c1 [Example 54, (S)-1-[3-(2′,4′-Difluoro-biphenyl-4-yloxymethyl)-benzyl]-pyrrolidine-2-carboxylic acid; trifluoro-acetic acid salt] | 3710 nM | 0.90 µM
COc1cc(F)c(F)cc1-c1ccc(OCc2cccc(CN3[C@@H](C(=O)O)CCCS3(=O)=O)c2)cc1 [Example 55, (R)-2-[3-(4′,5′-Difluoro-2′-methoxy-biphenyl-4-yloxymethyl)-benzyl]-1,1-dioxo-1lambda*6*-[1,2]thiazinane-3-carboxylic acid] | 330 nM | 0.16 µM
COc1cc(F)c(F)cc1-c1ccc(OCc2cccc(CN3[C@H](C(=O)O)CCCS3(=O)=O)c2)cc1 [Example 56, (S)-2-[3-(4′,5′-Difluoro-2′-methoxy-biphenyl-4-yloxymethyl)-benzyl]-1,1-dioxo-1lambda*6*-[1,2]thiazinane-3-carboxylic acid] | 110 nM | 0.04 µM
O=C(O)[C@H]1CCCS(=O)(=O)N1Cc1cccc(COc2ccc(-c3cc(F)c(F)cc3F)cc2)c1 [Example 57, (R)-1,1-Dioxo-2-[3-(2′,4′,5′-trifluoro-biphenyl-4-yloxymethyl)-benzyl]-1lambda*6*-[1,2]thiazinane-3-carboxylic acid] | 2340 nM | 1.22 µM
O=C(O)[C@@H]1CCCS(=O)(=O)N1Cc1cccc(COc2ccc(-c3cc(F)c(F)cc3F)cc2)c1 [Example 58, (S)-1,1-Dioxo-2-[3-(2′,4′,5′-trifluoro-biphenyl-4-yloxymethyl)-benzyl]-1lambda*6*-[1,2]thiazinane-3-carboxylic acid] | 60 nM | 0.04 µM
O=C(O)[C@H]1CCS(=O)(=O)N1Cc1csc(COc2ccc(-c3cc(F)c(F)cc3F)cc2)n1 [Example 59, (R)-1,1-Dioxo-2-[2-(2′,4′,5′-trifluoro-biphenyl-4-yloxymethyl)-thiazol-4-ylmethyl]-1lambda*V-isothiazolidine-3-carboxylic acid] | 16600 nM | 6.06 µM
O=C(O)[C@@H]1CCS(=O)(=O)N1Cc1csc(COc2ccc(-c3cc(F)c(F)cc3F)cc2)n1 [Example 60, (S)-1,1-Dioxo-2-[2-(2′,4′,5′-trifluoro-biphenyl-4-yloxymethyl)-thiazol-4-ylmethyl]-1lambda*6*-isothiazolidine-3-carboxylic acid] | 2190 nM | 1.74 µM
COc1cc(F)c(F)cc1-c1ccc(OCc2nc(CN3[C@@H](C(=O)O)CCS3(=O)=O)cs2)cc1 [Example 61, (R)-2-[2-(4′,5′-Difluoro-2′-methoxy-biphenyl-4-yloxymethyl)-thiazol-4-ylmethyl]-1,1-dioxo-1lambda*6*-isothiazolidine-3-carboxylic acid] | 1170 nM | 0.78 µM
COc1cc(F)c(F)cc1-c1ccc(OCc2nc(CN3[C@H](C(=O)O)CCS3(=O)=O)cs2)cc1 [Example 62, (S)-2-[2-(4′,5′-Difluoro-2′-methoxy-biphenyl-4-yloxymethyl)-thiazol-4-ylmethyl]-1,1-dioxo-1lambda*6*-isothiazolidine-3-carboxylic acid] | 430 nM | 0.26 µM
COc1cc(F)c(F)cc1-c1ccc(OCc2cncc(CN3C(C(=O)O)CCS3(=O)=O)c2)cc1 (stereo not shown) [Example 63, 2-[5-(4′,5′-Difluoro-2′-methoxy-biphenyl-4-yloxymethyl)-pyridin-3-ylmethyl]-1,1-dioxo-1lambda*6*-isothiazolidine-3-carboxylic acid] | 550 nM | 0.01 µM
